# Reference: patent US8871280B1, “Compositions and methods for treating fungal activity in plants or soil” (The United States of America, as represented by the …, priority 2011, dated 2014)
# What was measured:
# cucumber seeds = experiment: Greenhouse assay of seed germination and phytotoxicity, soil treated with plant extract alone; conditions: cucumber, in vivo, 0.3 % of PE in soil (3000 ppm)
# Procedure: Soil treatment: For each treatment, 300 g of dry greenhouse soli (Pro-mix, Premier Horticulture LTD, Red Hill, Pa.) was thoroughly mixed with Rhizoctonia inoculum and incubated for 15 days as described above. […] The infested soil treated with only the carrier solution served as an untreated control. Following the treatment, the soil was thoroughly stirred to mix the contents and incubated in a double polythene bag closed tightly in the dark at room temperature for four days for fumigation to occur. Following the incubation, the bag was opened to allow as much PE to dissipate as possible. This was done by sprinkling the surface soil with sterile water every other day, and stirring the soil once every day for seven days. For assay of effect on seed germination and phytotoxicity of the plant extracts, soil was treated with plant extract formulations alone.
# Greenhouse studies: Treated soil from each treatment was distributed to 4-inch plastic pots into which 12 seeds of cucumbers (95-100% germination) were sown and lightly watered to keep soil moist. The treatments were color coded and pots were randomized across treatment. All plants were kept in a greenhouse between 20° C. (night) to 26° C. (day) with 14 h of light. There were three pots per treatment in each experiment, and the experiment was repeated three times. As positive control, a broad spectrum popular soil fungicide Banrot® 40 WP (The Scotts Company, Ohio) was used following manufacturer's recommendation to control the disease. Total number of seedlings without any sign of damping off in each pot was recorded and percentage of disease suppression were calculated four weeks after sowing cucumber seeds.
# Rhizoctonia solani [1] = experiment: Filter disk fumigation method, mycelial growth inhibition on PDA; assay type: cell-based, Rhizoctonia solani AG-4, isolate Rs 23A; conditions: for Fumig2 % inhibition: fumigation experiment 2
# Procedure: (§1) Fungal isolate and preparation of inoculum: Rhizoctonia solani AG-4, isolate Rs 23A is a highly virulent pathogenic isolate which infects many vegetables, ornamentals and turfgrasses (Lewis, J. A., and G. C. Papavizas, Soil Biology and Biochemistry, 9:195-201 (1987)). The fungus was grown in potato dextrose agar (PDA) plates and fungal plugs from the freshly growing mycelium were mixed with moist sterilized cracked wheat in a 2 L flask for 15 days in dark at 22° C. (Lakshman, D. K., et al., Proceedings of the National Academy of Science, USA, 95: 6425-6429 (1998)). The infested wheat was air dried in a sterile hood for 3 days, blended in a homogenizer and sieved through a mesh and stored at 2° C. before soil inoculation. A dose response of the inocula was carried out by thoroughly mixing using 0.25, 0.5, 0.75, 1.0, 1.25 and 1.50 g inoculums per Kg dry weight potting soil plus sterile water to maintain 25-30% moisture and incubating at room temperature for two weeks before sowing cucumber (cv muncher) seeds with the infested soil. The percent germination and post-emergence damping off of cucumber seedlings were recorded. The lowest inoculums dose that induced 100% postemergence damping off was estimated to be 1 to 1.25 g/Kg soil for inocula prepared over the span of the experiments. For soil fumigation with plant extracts (PEs), each time the minimum inoculum dose giving rise to 100% damping off was used.
# In the second protocol, the chemical was kept not in direct contact with the fungus and we hypothesized that the plant extract will most likely influence the growth of the pathogen by fumigation action. In this approach, three sterile 15 mm filter paper (Whatman International Ltd, Maidstone, UK) disks were placed on the edge of each of three plates on the PDA. Each disk was impregnated in the center with various amounts (5-50 ul/disk) of the test solution/suspension. For negative control, only soybean oil was placed in the filter disk. […] The average radial growth was calculated and the experiment was repeated one more time. Percent growth inhibition was calculated as reported for poison bed assay.
# Rhizoctonia solani [2] = experiment: Poison food technique (contact action), mycelial growth inhibition in PDA; assay type: cell-based, Rhizoctonia solani AG-4, isolate Rs 23A; conditions: for PoisonB1 % inhibition: poison bed experiment 1; for PoisonB2 % inhibition: poison bed experiment 2
# Procedure: as §1
# In vitro bioassays: Two in vitro bioassay methods were used to investigate the mycelial growth inhibitory potentials of PEs. In the poison food technique, test chemical/plant extract was mixed at concentrations of 15, 30, 45, 60, 75, and 150 μl per 20 ml autoclaved PDA at 50° C., poured on three sterile disposable plastic plates (100×15 mm, Fisherbrand) at 20 ml/plate and cooled to room temperature to solidify (Dhingra, O.D., and J. B. Sinclair, 1995, Basic Plant Pathology Methods, 2nd Edition, Lewis Publishers, Boca Raton and London). […] Each plate was seeded in the center with a 5 mm diameter agar disk of the freshly grown Rhizoctonia pathogen, mycelial side facing the medium, and sealed with stretched Parafilm® M (Fisher Scientific). The plates were incubated in the dark at room temperature and when the pathogen reached to the edge of the plates in the control treatment (soybean oil), radial measurement of fungal growth in plates treated with PEs were recorded by taking three measurements from each plate. The experiment was repeated one more time. The percent mycelial growth inhibition (MGI) due to PE was calculated using the following formula: […] where dc=Avg. radial growth in mm of pathogen in control plate; dt=avg. radial growth in mm of pathogen in treated plate.
# Rhizoctonia solani [3] = experiment: Fungicidal vs fungistatic potential (regrowth of mycelial plugs on fresh PDA, 7 days); assay type: cell-based, Rhizoctonia solani AG-4, isolate Rs 23A
# Procedure: The fungicidal and fungistatic potential of the PEs were determined by the method described by Garber and Houstan (Garber R. H., and B. R. Houston, Phytopathology, 49: 449-450 (1959)). In brief, three 5 mm diameter plugs were taken from the peripheral mycelial growth from each plate and placed in a fresh PDA plate. Following incubation at room temperature for 7 days, observations were recorded for new mycelial growth (fungistatic) or no mycelial growth (fungicidal). As control, peripheral mycelial plugs from soybean oil amended PDA plates were checked for fresh mycelial growth in fresh PDA plates.
# Rhizoctonia solani [4] = experiment: Greenhouse suppression of damping off of cucumber seedlings in R. solani infested soil amended with plant extract; assay type: in vivo, Rhizoctonia solani AG-4, isolate Rs 23A
smiles,measurement,setting,value
CC=Cc1ccc(OC)cc1 [Anethole],% Seed germination (+ PE only),cucumber seeds,75.00%
same,Avg. seed germination (+ PE only),cucumber seeds,9.00
same,Fumig1 % inhibition,"Rhizoctonia solani [1]; amount oil 15 μL/20 mL plate, fumigation experiment 1",99%
same,Fumig2 % inhibition,Rhizoctonia solani [1]; amount oil 15 μL/20 mL plate,90%
same,Fumig2 % inhibition,Rhizoctonia solani [1]; amount oil 30 μL/20 mL plate,85%
same,Fumig2 % inhibition,Rhizoctonia solani [1]; amount oil 45 μL/20 mL plate,86%
same,Fumig2 % inhibition,Rhizoctonia solani [1]; amount oil 60 μL/20 mL plate,89%
same,Fumig2 % inhibition,Rhizoctonia solani [1]; amount oil 75 μL/20 mL plate,97%
same,Fumig2 % inhibition,Rhizoctonia solani [1]; amount oil 150 μL/20 mL plate,102%
same,"Inhibition of R. solani growth by fumigation action, in words","Rhizoctonia solani [1]; in vitro, filter disk",potent inhibitors
same,PoisonB1 % inhibition,Rhizoctonia solani [2]; amount oil 15 μL/20 mL plate,100%
same,PoisonB2 % inhibition,Rhizoctonia solani [2]; amount oil 15 μL/20 mL plate,100%
same,PoisonB1 % inhibition,Rhizoctonia solani [2]; amount oil 30 μL/20 mL plate,100%
same,PoisonB2 % inhibition,Rhizoctonia solani [2]; amount oil 30 μL/20 mL plate,100%
same,PoisonB1 % inhibition,Rhizoctonia solani [2]; amount oil 45 μL/20 mL plate,100%
same,PoisonB2 % inhibition,Rhizoctonia solani [2]; amount oil 45 μL/20 mL plate,100%
same,PoisonB1 % inhibition,Rhizoctonia solani [2]; amount oil 60 μL/20 mL plate,100%
same,PoisonB2 % inhibition,Rhizoctonia solani [2]; amount oil 60 μL/20 mL plate,100%
same,PoisonB1 % inhibition,Rhizoctonia solani [2]; amount oil 75 μL/20 mL plate,100%
same,PoisonB2 % inhibition,Rhizoctonia solani [2]; amount oil 75 μL/20 mL plate,100%
same,PoisonB1 % inhibition,Rhizoctonia solani [2]; amount oil 150 μL/20 mL plate,100%
same,PoisonB2 % inhibition,Rhizoctonia solani [2]; amount oil 150 μL/20 mL plate,100%
same,"Inhibition of R. solani growth by contact (poison bed assay), in words","Rhizoctonia solani [2]; in vitro, PDA",potent inhibitors
same,Effect (fumigation),Rhizoctonia solani [3]; amount oil 15 μL/20 mL plate,S
same,"Effect (poison bed, contact action)",Rhizoctonia solani [3]; amount oil 15 μL/20 mL plate,S
same,Effect (fumigation),Rhizoctonia solani [3]; amount oil 30 μL/20 mL plate,S
same,"Effect (poison bed, contact action)",Rhizoctonia solani [3]; amount oil 30 μL/20 mL plate,S
same,Effect (fumigation),Rhizoctonia solani [3]; amount oil 45 μL/20 mL plate,S
same,Effect (fumigation),Rhizoctonia solani [3]; amount oil 60 μL/20 mL plate,S
same,Effect (fumigation),Rhizoctonia solani [3]; amount oil 75 μL/20 mL plate,S
same,Effect (fumigation),Rhizoctonia solani [3]; amount oil 150 μL/20 mL plate,S
same,Fungicidal vs fungistatic nature at higher concentrations,"Rhizoctonia solani [3]; in vitro, higher concentrations",fungicidal
same,% Disease suppression (+ PE + R. solani),"Rhizoctonia solani [4]; cucumber damping off, soil amendment at 0.3% (v/w), four weeks after sowing",58.33%
same,Avg. seed Germination (+ PE + R. solani),"Rhizoctonia solani [4]; cucumber, 12 seeds sown per pot, infested soil amended with 0.3% PE",7.00
